Test results from PMC9841589, “Identification of 2-Aminoacyl-1,3,4-thiadiazoles as Prostaglandin E2 and Leukotriene Biosynthesis Inhibitors” (ACS Medicinal Chemistry Letters, 2022).

What was measured:
COX-2 = molecular target: T1, COX-2 (Homo sapiens, UniProt P35354); experiment: Cell-free COXs activity assay, COX-2; format: biochemical; conditions: percentage of uninhibited control (100%), n = 3, n.i.: no inhibitory activity observed, read-out: COX-2 residual activity (%)
T1 sequence (P35354 18-604): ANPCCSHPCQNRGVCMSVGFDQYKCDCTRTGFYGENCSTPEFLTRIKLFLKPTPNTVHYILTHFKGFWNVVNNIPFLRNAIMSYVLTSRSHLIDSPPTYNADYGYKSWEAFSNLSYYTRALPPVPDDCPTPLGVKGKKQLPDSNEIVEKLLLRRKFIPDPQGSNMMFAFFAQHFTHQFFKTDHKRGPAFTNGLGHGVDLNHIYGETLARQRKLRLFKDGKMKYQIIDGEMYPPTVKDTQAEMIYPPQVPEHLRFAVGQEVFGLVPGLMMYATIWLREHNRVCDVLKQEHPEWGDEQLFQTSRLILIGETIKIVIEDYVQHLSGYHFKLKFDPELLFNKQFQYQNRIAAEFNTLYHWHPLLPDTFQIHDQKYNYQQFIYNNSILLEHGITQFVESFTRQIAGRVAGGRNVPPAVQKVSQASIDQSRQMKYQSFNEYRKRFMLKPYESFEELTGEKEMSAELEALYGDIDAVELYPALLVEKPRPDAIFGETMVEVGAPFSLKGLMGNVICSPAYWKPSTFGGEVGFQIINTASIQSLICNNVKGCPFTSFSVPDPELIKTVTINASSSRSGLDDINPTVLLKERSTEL
Protocol: (§1) Cell-free COXs activity assay
(§2) Isolated COX-1 (ovine) and COX-2 (human) were used for the evaluation of the activity of test compounds 3, 6, 7, and 9 on cyclooxygenases. COXs were diluted using Tris buffer (100 mM, pH = […]
(§3) 8) plus 5 mM glutathione, 100 µM EDTA and 5 µM hemoglobin) to a final concentration of 50 U/mL for COX-1 and 20 U/mL for COX-2, and pre-incubated with test compounds 3, 6, 7, and 9 (10 µM) or vehicle (0.1% DMSO) over 5 min at rt. After 1 min at 37 °C, reactions were started after addition of arachidonic acid to a final concentration of 5 µM for COX-1 and 2 µM for COX-2. After 5 min at 37 °C, 1 mL of ice-cold methanol was added for stopping the reactions on ice. Then, PGB 1 as internal standard and 530 µl PBS plus HCl were added, and solid-phase extraction was performed as reported before.4-6, 17-19 COXs product formation (12-HHT) was determined using RP-HPLC. 4-6, 17-19 Indomethacin (10 µM) and celecoxib (5 µM) were used as reference drugs.
(§4) Expression, purification and activity assay of human recombinant sEH
(§5) Human recombinant sEH was expressed in Sf9 cells and was infected using a baculovirus, provided by Dr. B. Hammock, University of California, Davis, CA. After 72 hours, cells were pelleted and sonicated (3 × 10 sec) at 4 °C in lysis buffer (50 mM NaHPO 4, pH = 8, 300 mM NaCl, 10% glycerol, 1 mM EDTA, 1 mM phenylmethanesulfonyl fluoride, 10 µg/mL of leupeptin, and 60 µg/mL of soybean trypsin inhibitor). Lysates were centrifuged over 60 min at 4 °C (100,000 × g), and supernatants were collected and submitted to a benzylthio-sepharose-affinity chromatography for sEH purification by elution with 4-fluorochalcone oxide in PBS plus 1 mM DTT and 1 mM EDTA.720 […]
(§6) DMSO) for 15 min at rt. 50 µM 3-phenyl-cyano(6-methoxy-2-naphthalenyl)methyl ester-2-oxiraneacetic acid (PHOME), a non-fluorescent compound, was added for starting the reaction.
(§7) PHOME is enzymatically converted into a fluorescent compound, 6-methoxy-naphtaldehyde, detectable by using a spectrofluorometer setting λ em = 465 nm, λ ex = 330 nm. After 60 min, ZnSO 4

COX-1 = molecular target: T2, COX-1 (Ovis aries, UniProt P05979); experiment: Cell-free COXs activity assay, COX-1; format: biochemical, ovine; conditions: percentage of uninhibited control (100%), n = 3, n.i.: no inhibitory activity observed, read-out: COX-1 residual activity (%)
T2 sequence (P05979 25-600): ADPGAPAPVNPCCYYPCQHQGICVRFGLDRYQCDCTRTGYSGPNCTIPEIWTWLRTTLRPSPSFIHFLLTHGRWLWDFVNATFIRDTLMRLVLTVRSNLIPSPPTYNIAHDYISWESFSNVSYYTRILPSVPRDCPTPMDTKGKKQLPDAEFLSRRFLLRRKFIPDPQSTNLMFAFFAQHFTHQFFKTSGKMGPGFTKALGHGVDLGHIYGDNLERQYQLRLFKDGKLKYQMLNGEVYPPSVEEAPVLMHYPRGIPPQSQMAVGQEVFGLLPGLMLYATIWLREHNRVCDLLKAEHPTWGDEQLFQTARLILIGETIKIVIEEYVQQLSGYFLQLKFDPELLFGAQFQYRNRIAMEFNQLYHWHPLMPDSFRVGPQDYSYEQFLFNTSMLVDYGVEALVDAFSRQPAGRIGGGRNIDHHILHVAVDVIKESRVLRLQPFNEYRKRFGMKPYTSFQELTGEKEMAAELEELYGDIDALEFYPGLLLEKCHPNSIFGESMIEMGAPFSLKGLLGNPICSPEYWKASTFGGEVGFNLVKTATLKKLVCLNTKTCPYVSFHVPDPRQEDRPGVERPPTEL
Protocol: as §1, §2, §3, §4, §5, §6, §7

remaining activity at 10 µM (COX-2) [%]	remaining activity at 10 µM (COX-1) [%]	Structure (SMILES)
83.1	82.3	Cc1cc(C(=O)Nc2nnc(-c3ccc(-c4ccccc4N)cc3)s2)cc(Cl)n1 [compound 6]
72.7	107	Nc1ccccc1-c1ccc(-c2nnc(NC(=O)c3c(Cl)ccnc3Cl)s2)cc1 [compound 9]
194	98.1	Nc1ccccc1-c1ccc(-c2nnc(NC(=O)c3ccccc3Br)s2)cc1 [compound 7]
65.4	104	O=C(Nc1nnc(-c2ccc(-c3cccc(O)c3)cc2)s1)c1ccccc1Br [compound 3]
